One assay has as its system cellular m^6A effectors. The experiment in a line: HCMV-induced accumulation of cellular m^6A effector proteins in NHDFs (immunoblotting). It is filed as cell-based, human. Conditions: NHDFs infected with HCMV (MOI=3); PP242 25 μM vs DMSO (FIG. 1E). (In general: A western blot detects proteins with antibodies after separation by electrophoresis.)
The next assay concerns HCMV. The experiment in a line: HCMV reproduction and spread in NHDFs, virus titer (TCID/50). It is filed as cell-based, human cytomegalovirus. Conditions: 1 μM JAK inhibitor (Pyridone 6) vs DMSO.
The subject of assay [1] is IFNB1 mRNA. The experiment in a line: IFNB1 mRNA abundance in response to dsDNA in siRNA-treated NHDFs with or without JAK inhibitor (qRT-PCR). In kind it is cell-based, human. Conditions: NHDFs transfected with dsDNA, JAK inhibitor (Pyridone 6) vs DMSO (FIG. 5A).
The test system of assay [2] is IFNB1 mRNA. The experiment in a line: dsDNA-induced IFNB1 mRNA accumulation in primary human fibroblasts (RT-PCR), Rhein treatment. It is filed as cell-based. Conditions: primary human fibroblasts transfected with dsDNA, measured after 9 h; Rhein added 24 h prior to or at time of transfection; vs DMSO vehicle (FIG. 16).

In the case of `CC(C)n1nc(-c2cc3cc(O)ccc3[nH]2)c2c(N)ncnc21` [PP242], the “HCMV-induced increase in cellular m^6A effectors” value in the assay with cellular m^6A effectors is on record as “repressed”.

Turning to `CC(C)(C)c1nc2c3cc[nH]c(=O)c3c3cc(F)ccc3c2[nH]1` [JAK inhibitor, Pyridone 6], in the assay on HCMV (MOI=0.05, 7 d (FIG. 2D)), the “increase of HCMV reproduction in control siRNA-treated cultures” value is given as “less than 10 fold”. The “HCMV reproduction in METTL14 siRNA-treated cultures” value in the assay on HCMV (MOI=0.05, 7 d, compared to control siRNA levels (FIG. 2D)) was “to a large extent restored HCMV reproduction”. Also, the “kinetics of IFNB1 mRNA accumulation” value in the assay on IFNB1 mRNA [1] is listed as “faster”.

Regarding `O=C(O)c1cc(O)c2c(c1)C(=O)c1cccc(O)c1C2=O` [Rhein], the “IFNB1 mRNA production” value in the assay on IFNB1 mRNA [2] is on record as “dose-dependent inhibition of IFNB1 mRNA production”.

(Values after patent publication US20210164992A1, “COMPOSITIONS AND METHODS RELATED TO INNATE RESPONSE TO DNA AND REGULATION OF INTERFERON-BETA” (priority 2018, published 2021).)
